# Test results reported in article PMC9950431, “A bivalent remipede toxin promotes calcium release via ryanodine receptor activation” (Nature Communications, 2023).
# Entries after “also recorded” stand apart in the source; their conditions may differ.
# Legend:
# RyR2 [1] = assay: Single channel electrophysiology of RyR2 channels inserted into lipid bilayers (exposure to peptide); type: biochemical, sheep (cardiac SR)
# Method: Cardiac SR was prepared from mature female crossbred sheep hearts, and skeletal SR vesicles were isolated from the back and leg muscles of mature female New Zealand white rabbits[29],[54] with approval from the ANU Animal Experiment Ethics Committee Protocol Number A2015/35. […] Solutions for vesicle incorporation contained (mM): cis 230 caesium methanesulfonate (CsMS); 20 CsCl; 1 CaCl2 and 10 […] (TES) pH 7.4 and trans 30 CsMS; 20 CsCl; 1 CaCl2 10 TES; pH 7.4. […] Following incorporation, 200 mM CsMS was added to the trans solution and the cis solution exchanged with recording solution containing (mM): 230 CsMS; 20 CsCl; 0.001 CaCl2;10 TES and pH 7.4, with [Ca^2+] set by a [BAPTA] determined using a Ca^2+ electrode. The cytoplasmic and luminal solutions contained 1 μM and 1 mM Ca^2+ respectively, with symmetrical 250/250 mM CsMS. Bilayer voltage was switched between +40 mV and −40 mV (cytoplasmic voltage relative to grounded luminal solution) every 30 s. The activity of the RyR channels used here included 1 µM Ca^2+ in the cytoplasmic solution and 1 mM Ca^2+ in the luminal solution[29],[55]. Electrophysiology experiments were analysed using Channel 2 (P.W. Gage, M. Smith, Australian National University) and Channel 3 (N.W. Laver, University of Newcastle, Australia) software, available from the authors upon request. Statistical analyses were performed using Microsoft Excel (Office 365). […] Following most incorporation events, a single channel only was active in the bilayer and channel open probability (Po), mean open time (To), mean closed time (Tc) and open event frequency (Fo) were measured. When 2–4 channels were active in a bilayer, PO was approximated from the fractional mean current (I’F), i.e., mean current divided by maximum current. I’F is equal to PO in a single channel and indicates the average PO of multiple channels in a bilayer. […] Experiments at UN also included a minority of multi-channel experiments. The bilayer rigs, solution composition, source of channels, data acquisition and analyses methods were all identical.
# Statistical analysis of single channel data was performed using Excel spreadsheets and embedded Students t-test functions or a sign test as indicated in the graphs in Figs. 1 and 3.
# RyR1 = biological target: T1, RyR1 (Oryctolagus cuniculus, UniProt P11716); assay: Washout (reversibility/avidity) single channel experiments, RyR1; type: biochemical, New Zealand white rabbit (skeletal SR)
# T1 construct: skeletal SR vesicles were isolated from the back and leg muscles of mature female New Zealand white rabbits; from tissue; host or cells: rabbit back and leg skeletal muscle, sarcoplasmic reticulum vesicles
# Method: (§1) Cardiac SR was prepared from mature female crossbred sheep hearts, and skeletal SR vesicles were isolated from the back and leg muscles of mature female New Zealand white rabbits[29],[54] with approval from the ANU Animal Experiment Ethics Committee Protocol Number A2015/35. […] Solutions for vesicle incorporation contained (mM): cis 230 caesium methanesulfonate (CsMS); 20 CsCl; 1 CaCl2 and 10 […] (TES) pH 7.4 and trans 30 CsMS; 20 CsCl; 1 CaCl2 10 TES; pH 7.4. SR vesicles routinely incorporated with the cytoplasmic surface of the SR and RyR facing the cis chamber. Following incorporation, 200 mM CsMS was added to the trans solution and the cis solution exchanged with recording solution containing (mM): 230 CsMS; 20 CsCl; 0.001 CaCl2;10 TES and pH 7.4, with [Ca^2+] set by a [BAPTA] determined using a Ca^2+ electrode. […] Electrophysiology experiments were analysed using Channel 2 (P.W. Gage, M. Smith, Australian National University) and Channel 3 (N.W. Laver, University of Newcastle, Australia) software, available from the authors upon request. […] Following most incorporation events, a single channel only was active in the bilayer and channel open probability (Po), mean open time (To), mean closed time (Tc) and open event frequency (Fo) were measured. […] In all experiments control channel activity was recorded for 3 to 5 min before exposure to the test compound. […]
# RyR2 [2] = assay: Washout (reversibility/avidity) single channel experiments, RyR2; type: biochemical, sheep (cardiac SR); conditions: 10 nM and 1 μM
# Method: as §1
# T1 sequence (P11716 whole entry): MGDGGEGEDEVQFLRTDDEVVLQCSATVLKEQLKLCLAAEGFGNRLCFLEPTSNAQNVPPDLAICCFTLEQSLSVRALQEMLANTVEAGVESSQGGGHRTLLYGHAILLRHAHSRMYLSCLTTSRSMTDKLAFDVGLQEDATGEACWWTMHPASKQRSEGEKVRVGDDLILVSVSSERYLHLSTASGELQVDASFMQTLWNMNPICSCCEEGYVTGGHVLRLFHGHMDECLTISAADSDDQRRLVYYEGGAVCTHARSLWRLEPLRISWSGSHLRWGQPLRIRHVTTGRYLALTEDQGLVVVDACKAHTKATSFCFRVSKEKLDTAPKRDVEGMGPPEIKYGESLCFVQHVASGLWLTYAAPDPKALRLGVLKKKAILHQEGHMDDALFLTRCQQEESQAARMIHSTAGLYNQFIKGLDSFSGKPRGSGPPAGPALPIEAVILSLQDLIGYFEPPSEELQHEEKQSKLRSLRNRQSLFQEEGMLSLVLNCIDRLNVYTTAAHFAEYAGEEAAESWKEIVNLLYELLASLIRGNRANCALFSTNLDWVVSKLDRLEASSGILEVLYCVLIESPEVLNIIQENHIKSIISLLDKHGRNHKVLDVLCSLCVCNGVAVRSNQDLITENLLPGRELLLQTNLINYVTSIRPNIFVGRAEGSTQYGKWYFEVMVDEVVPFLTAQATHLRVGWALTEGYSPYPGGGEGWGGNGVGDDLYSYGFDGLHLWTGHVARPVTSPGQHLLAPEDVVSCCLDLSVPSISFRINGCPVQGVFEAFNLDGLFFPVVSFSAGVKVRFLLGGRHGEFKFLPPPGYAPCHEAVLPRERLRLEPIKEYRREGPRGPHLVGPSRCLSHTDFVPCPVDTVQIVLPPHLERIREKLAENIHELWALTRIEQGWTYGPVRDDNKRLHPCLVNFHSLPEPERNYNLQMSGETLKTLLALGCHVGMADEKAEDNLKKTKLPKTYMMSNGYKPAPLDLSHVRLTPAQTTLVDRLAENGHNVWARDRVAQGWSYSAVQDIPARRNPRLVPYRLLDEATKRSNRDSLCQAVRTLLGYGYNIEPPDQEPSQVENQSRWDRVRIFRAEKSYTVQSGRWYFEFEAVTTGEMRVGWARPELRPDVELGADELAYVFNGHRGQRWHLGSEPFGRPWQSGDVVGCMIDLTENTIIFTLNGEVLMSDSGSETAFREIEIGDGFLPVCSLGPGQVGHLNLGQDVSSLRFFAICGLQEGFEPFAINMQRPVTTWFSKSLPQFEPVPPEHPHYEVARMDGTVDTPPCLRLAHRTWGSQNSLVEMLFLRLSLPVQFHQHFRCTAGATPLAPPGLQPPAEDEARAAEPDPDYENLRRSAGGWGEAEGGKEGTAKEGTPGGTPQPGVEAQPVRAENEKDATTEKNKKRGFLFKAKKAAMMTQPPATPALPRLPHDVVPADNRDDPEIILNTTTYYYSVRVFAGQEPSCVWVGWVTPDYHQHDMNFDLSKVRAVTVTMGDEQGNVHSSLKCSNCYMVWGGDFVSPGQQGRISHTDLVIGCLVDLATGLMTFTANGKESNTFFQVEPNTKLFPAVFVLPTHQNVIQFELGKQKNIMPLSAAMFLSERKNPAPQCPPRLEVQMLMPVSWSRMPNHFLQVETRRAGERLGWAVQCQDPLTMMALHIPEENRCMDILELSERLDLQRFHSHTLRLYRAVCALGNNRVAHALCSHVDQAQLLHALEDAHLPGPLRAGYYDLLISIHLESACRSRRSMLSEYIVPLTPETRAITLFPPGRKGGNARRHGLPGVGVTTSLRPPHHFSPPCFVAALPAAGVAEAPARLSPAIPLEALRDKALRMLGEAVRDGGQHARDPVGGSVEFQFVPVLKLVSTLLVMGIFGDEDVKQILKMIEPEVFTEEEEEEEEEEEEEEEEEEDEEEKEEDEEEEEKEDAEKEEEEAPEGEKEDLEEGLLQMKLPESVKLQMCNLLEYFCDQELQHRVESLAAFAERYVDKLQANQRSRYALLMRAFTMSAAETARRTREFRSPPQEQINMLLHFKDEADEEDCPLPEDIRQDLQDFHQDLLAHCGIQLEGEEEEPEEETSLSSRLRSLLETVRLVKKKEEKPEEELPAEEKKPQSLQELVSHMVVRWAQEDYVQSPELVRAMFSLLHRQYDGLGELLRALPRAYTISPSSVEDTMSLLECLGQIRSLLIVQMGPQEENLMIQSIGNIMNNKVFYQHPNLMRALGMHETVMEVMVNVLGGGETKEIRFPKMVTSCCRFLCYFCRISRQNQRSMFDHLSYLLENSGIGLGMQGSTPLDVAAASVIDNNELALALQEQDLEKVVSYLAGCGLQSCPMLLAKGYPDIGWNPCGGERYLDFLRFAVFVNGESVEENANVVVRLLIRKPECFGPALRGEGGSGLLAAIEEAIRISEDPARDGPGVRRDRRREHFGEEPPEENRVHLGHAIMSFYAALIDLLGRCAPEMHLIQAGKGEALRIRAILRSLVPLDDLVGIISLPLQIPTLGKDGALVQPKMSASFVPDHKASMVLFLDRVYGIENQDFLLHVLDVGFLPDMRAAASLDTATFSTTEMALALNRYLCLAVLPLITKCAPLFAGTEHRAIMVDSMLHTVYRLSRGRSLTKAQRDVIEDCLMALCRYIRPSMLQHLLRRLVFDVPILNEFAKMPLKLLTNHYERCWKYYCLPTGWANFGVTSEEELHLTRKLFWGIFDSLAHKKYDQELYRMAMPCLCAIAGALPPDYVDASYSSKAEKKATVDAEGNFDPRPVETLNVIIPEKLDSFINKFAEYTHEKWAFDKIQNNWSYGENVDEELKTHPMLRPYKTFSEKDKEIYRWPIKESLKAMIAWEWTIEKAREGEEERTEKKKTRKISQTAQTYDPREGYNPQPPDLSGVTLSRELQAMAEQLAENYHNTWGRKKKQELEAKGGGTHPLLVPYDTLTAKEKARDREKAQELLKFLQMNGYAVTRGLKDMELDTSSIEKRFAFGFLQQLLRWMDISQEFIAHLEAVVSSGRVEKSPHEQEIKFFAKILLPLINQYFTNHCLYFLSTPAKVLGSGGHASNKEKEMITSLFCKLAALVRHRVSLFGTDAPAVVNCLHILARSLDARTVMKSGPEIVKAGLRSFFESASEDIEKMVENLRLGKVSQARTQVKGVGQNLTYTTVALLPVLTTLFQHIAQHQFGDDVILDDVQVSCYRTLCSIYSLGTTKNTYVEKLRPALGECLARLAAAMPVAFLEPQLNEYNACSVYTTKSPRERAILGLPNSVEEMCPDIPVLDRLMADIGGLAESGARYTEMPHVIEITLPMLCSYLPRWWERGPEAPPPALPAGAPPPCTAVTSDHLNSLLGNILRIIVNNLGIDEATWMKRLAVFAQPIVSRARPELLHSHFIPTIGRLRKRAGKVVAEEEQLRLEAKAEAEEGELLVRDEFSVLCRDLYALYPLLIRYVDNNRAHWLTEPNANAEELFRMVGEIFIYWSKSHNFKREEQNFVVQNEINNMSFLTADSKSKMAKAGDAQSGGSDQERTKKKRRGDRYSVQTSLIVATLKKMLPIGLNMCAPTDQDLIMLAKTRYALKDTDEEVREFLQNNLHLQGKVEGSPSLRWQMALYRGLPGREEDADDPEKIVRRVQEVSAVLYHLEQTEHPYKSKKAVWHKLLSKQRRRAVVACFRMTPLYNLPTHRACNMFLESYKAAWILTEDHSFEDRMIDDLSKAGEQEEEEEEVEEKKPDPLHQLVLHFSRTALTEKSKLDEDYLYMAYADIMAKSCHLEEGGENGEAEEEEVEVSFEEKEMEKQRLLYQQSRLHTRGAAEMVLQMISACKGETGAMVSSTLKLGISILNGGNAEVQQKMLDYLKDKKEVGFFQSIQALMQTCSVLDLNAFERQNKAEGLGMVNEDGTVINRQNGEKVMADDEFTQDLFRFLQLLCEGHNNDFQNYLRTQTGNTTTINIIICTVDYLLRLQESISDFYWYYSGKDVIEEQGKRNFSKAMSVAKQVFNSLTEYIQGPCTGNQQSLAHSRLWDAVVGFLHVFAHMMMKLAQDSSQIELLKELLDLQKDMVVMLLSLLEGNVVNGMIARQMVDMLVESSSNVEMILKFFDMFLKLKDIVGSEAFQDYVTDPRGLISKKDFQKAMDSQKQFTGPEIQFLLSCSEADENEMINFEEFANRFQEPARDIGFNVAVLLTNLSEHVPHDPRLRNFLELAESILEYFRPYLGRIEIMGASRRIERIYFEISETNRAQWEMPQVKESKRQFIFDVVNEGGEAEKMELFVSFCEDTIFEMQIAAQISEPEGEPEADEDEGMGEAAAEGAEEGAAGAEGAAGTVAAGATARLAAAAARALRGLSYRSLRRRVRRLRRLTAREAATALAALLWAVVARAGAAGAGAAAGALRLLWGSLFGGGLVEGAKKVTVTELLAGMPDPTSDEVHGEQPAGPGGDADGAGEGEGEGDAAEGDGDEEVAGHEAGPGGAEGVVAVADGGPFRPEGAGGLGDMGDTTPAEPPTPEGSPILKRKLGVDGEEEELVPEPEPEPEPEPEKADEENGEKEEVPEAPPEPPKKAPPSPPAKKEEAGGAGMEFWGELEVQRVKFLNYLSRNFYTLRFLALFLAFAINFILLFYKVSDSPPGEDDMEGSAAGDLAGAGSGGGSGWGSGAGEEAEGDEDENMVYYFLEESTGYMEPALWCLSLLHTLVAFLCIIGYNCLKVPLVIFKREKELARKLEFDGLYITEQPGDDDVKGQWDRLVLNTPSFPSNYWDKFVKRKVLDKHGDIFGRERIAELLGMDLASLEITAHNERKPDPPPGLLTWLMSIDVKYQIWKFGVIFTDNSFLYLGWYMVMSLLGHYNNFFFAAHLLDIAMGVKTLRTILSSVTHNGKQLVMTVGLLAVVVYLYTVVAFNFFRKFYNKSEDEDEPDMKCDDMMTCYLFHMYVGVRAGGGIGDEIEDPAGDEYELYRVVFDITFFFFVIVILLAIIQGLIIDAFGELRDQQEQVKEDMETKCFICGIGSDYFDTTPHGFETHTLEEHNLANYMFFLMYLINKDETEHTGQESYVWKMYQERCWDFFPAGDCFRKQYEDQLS
substance,measurement,setting,value
φ-Xibalbin3-Xt3a,channel activity during exposure,RyR2 [1],no significant change in activity during exposure to the toxin
same,channel activity,RyR2 [1]; 1 nM and 10 nM,weak trend towards increased activity
same,openings to the maximum conductance,RyR2 [1]; 1 nM to 1 μM,did not show any consistent changes in openings to the maximum conductance
same,"substate level, % of maximum conductance","RyR2 [1]; 10 nM Xt3a, −40 mV, prolonged gating to substate levels",< 50%
same,reversibility on washout,"RyR1; 100 pM, 10 nM and 1 μM, early (2 to 3 min) and late (15 to 23 min) after washout",no significant washout of Xt3a effect was observed; also recorded: persistent activity after washout in our single-channel recordings for as long as the bilayers lasted
same,sub-state activity during washout,RyR1; maintained for as long as the bilayer lasted,sub-state activity increased during the washout period
same,channel activity during washout,RyR2 [2],activity did appear to increase somewhat during washout
